Calls of active or inactive are those of the source. The rule behind the calls is not given here.
How the values were obtained:
[1] = target: T1, Son of sevenless homolog 1 (Homo sapiens, UniProt Q07889); test: Binding affinity to GST-tagged human SOS1 (564 to 1049 residues) expressed in Escherichia coli BL21 (DE3) cells assessed as ternary complex formation by measuring dissociation constant incubated for 15 mins in the presence of 6His tagged human VCB by fluorescence polarization-based displacement assay
T1 sequence (Q07889 whole entry): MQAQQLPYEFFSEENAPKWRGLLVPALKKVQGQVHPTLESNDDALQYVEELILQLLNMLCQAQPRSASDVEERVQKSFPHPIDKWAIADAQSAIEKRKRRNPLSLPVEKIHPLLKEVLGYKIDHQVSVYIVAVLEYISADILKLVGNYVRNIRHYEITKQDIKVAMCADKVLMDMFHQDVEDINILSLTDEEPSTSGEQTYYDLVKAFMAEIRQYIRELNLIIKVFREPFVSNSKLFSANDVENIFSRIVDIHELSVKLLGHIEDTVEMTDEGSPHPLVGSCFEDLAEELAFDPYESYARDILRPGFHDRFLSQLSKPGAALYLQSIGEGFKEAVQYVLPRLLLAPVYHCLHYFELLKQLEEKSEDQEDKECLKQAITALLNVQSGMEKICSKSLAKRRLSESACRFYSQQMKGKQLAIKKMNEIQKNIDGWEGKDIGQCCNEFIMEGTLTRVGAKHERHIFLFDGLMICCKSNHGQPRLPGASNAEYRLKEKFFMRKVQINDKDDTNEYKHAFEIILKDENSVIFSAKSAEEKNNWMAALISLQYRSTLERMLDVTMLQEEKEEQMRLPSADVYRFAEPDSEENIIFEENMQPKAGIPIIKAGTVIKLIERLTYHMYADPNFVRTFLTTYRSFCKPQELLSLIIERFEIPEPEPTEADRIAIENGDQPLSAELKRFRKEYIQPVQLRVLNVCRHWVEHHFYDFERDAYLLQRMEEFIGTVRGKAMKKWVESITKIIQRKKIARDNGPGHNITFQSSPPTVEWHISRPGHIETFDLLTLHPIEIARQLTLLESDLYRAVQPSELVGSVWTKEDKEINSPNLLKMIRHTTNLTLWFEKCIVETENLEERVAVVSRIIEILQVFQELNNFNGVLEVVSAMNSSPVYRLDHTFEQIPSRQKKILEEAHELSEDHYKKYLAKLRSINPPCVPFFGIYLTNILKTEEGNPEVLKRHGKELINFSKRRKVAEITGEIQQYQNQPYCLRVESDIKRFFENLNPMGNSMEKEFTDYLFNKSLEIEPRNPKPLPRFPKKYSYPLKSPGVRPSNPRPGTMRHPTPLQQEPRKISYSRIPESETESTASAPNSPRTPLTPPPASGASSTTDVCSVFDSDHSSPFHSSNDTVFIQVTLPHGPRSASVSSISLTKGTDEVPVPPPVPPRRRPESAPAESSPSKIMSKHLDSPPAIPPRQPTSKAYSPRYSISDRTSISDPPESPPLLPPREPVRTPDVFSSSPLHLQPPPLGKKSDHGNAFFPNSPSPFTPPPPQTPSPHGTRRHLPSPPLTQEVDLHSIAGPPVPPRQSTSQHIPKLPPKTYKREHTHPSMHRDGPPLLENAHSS

[2] = target: T2, von Hippel-Lindau disease tumor suppressor/Son of sevenless homolog 1 (Homo sapiens) (UniProt Q07889+P40337); test: PROTAC activity at VHL/SOS1 in human NCI-H358 cells harboring KRAS G12C mutant assessed as induction of SOS1 degradation at 1 uM preincubated with (R)-1-(4-(4-((1-(3-amino-5-(trifluoromethyl)phenyl)ethyl)amino)-7-methoxy-2-methylquinazolin-6-yl)piperidin-1-yl)ethanone for 4 hrs followed by compound treatment and measured after 24 hrs by Immunoblot analysis; format: cell-based
[3] = target: T2, von Hippel-Lindau disease tumor suppressor/Son of sevenless homolog 1 (Homo sapiens); test: PROTAC activity at VHL/SOS1 in human SW620 cells harboring KRAS G12V mutant assessed as induction of SOS1 degradation by measuring maximal efficacy at 1 to 2000 nM incubated for 24 hrs by Immunoblot analysis relative to control; format: cell-based; settings: dose 1-2000 nM
[4] = target: T2, von Hippel-Lindau disease tumor suppressor/Son of sevenless homolog 1 (Homo sapiens); test: PROTAC activity at VHL/SOS1 in human ASPC1 cells harboring KRAS G12D mutant assessed as induction of SOS1 degradation at 1 uM incubated for 2 to 4 hrs by Immunoblot analysis; format: cell-based; settings: time 2-4 hrs
[5] = target: T2, von Hippel-Lindau disease tumor suppressor/Son of sevenless homolog 1 (Homo sapiens); test: In vivo PROTAC activity at VHL/SOS1 in human SW620 cells harboring KRAS G12V mutant xenografted BALB/c nude mouse assessed as induction of SOS1 degradation in tumor at 10 to 20 mg/kg, ip administered once daily for 2 weeks by immunohistochemistry analysis; format: functional, organism-based; settings: SW-620, dose 10-20 mg/kg

T2 sequence (P40337 whole entry, looked up, one chain of several): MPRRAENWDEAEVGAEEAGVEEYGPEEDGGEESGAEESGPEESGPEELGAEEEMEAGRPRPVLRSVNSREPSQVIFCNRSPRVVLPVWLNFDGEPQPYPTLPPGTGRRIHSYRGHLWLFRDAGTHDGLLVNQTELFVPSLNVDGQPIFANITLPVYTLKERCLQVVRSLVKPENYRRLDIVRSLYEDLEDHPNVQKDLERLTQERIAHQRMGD

Structure (SMILES): COc1cc2nc(C)nc(N[C@H](C)c3cc(N)cc(C(F)(F)F)c3)c2cc1C1CCN(C(=O)CCCCCC(=O)N[C@H](C(=O)N2C[C@H](O)C[C@H]2C(=O)N[C@@H](C)c2ccc(-c3scnc3C)cc2)C(C)(C)C)CC1
- Kd [1]: 8.13 nM
- Activity [2]: inactive
- Emax [3]: > 95%
- Activity [4]: Active
- Activity [5]: Active

— ChEMBL document CHEMBL5247656, “Discovery of a Potent, Cooperative, and Selective SOS1 PROTAC ZZ151 with In Vivo Antitumor Efficacy in KRAS-Mutant Cancers” (J Med Chem, 2023)
